# According to patent publication US8993593B2, “N-(4-(6-fluoro-3,4-dihydroisoquinolin-2(1H)-yl)-2,6-dimethylphenyl)-3,3-dimethylbutanamide as potassium channel modulators” (Valeant Pharmaceuticals International, priority 2006, dated 2015):
# Tests used:
# [1] = tested on: mouse maximal electroshock seizure (MES) model; experiment: Maximal electroshock seizure (MES) test, mouse; assay type: in vivo; conditions: Mus musculus, po; murine MES model, dosed orally 2 hours prior to testing; read-out: ED50, inhibition of seizures
# Text: The MES testing protocol is based on procedures established at the National Institute of Neurological Disorders and Stroke in conjunction with the Anticonvulsant Screening Program (ASP) at the University of Utah (White, H. S., Woodhead, J. H., Wilcox, K. S., Stables, J. P., Kupferberg, H. J and Wolf, H. H. 2002. “General Principles: Discovery and Preclinical Development of Antiepileptic Drugs,” in Antiepileptic Drugs, 5th Edition, R. H. Levy, ed.; R. H. Mattson, B. S. Meldrum, and E. Perucca. Philadelphia, Lippincott Williams & Wilkins.), The goal of the test rapid identification and characterization of the in vivo anticonvulsant activity of any compounds that have been shown active in PC-12 cellular based Rb^+ efflux assay.
# Adult male CF-I albino mice (18-25 g, Charles River Laboratories) are exclusively used for in-house MES screen of compounds. Male Sprague-Dawley albino rats (100-125 g, Charles River Laboratories) are also used to test anticonvulsant compounds. Variability of test outcomes is reduced by using animals of the same sex, age, and weight. Animals are permitted to rest and recover from transit for at least 48 hr prior to experimentation. Animals are used for AED testing only once. In some instances, the animals may be anesthetized prior to blood collection and/or whole brain extraction for pharmacokinetic assay. All animals are maintained and handled as outlined in standard animal care guidelines.
# In the experiments, testing compounds are prepared as suspensions in 0.5% methyl cellulose (Sigma, Cat #M0512, Viscosity 4000 cP at 20° C.) in water, regardless of solubility. Dry powder compounds are initially ground with a glass rod in a test tube in several drops of methyl cellulose to create a paste and to break down any large chunks. After several minutes of grinding, the volume of the suspension is increased to the final concentration desired. The suspension is then sonicated using a Branson sonicator model 3510 in a water bath at room temperature for 15 minutes. Compound suspensions are further vortexed prior to animal dosing. In some of the cases, DMSO is used to initially solubilize compounds in small volumes and then this solution is added to the 0.5% methyl cellulose solution, in order to create more even and less aggregated compound suspensions. The final concentration of DMSO is 3.75%, an amount with no apparent toxicity or neuroprotective effects in our usual rotarod and MES tests. Methyl cellulose/DMSO compound suspensions are identically prepared for intraperitoneally (i.p.) to mice or orally (p.o.) to rat dosing.
# Initially the animals are weighed with an electronic scale and then marked. Data recording sheets are generated for each compound assessment. Mice or rats are dosed with the compound suspension at 0.01 mL/g of body weight. The typical injection volume range is between 180-250 μl for mice. […] Rats are p.o. dosed using a flexible feeding tube, typically starting at a compound dose of 5 mg/kg.
# A Rodent Electroconvulsive Stimulator (Model 200, Hamit-Darvin-Freesh, Snow Canyon Clinic, Ivins, Utah) is used for MES testing. A 60-Hz alternating current (50 mA for mice; 150 mA for rats) is delivered for 0.2 seconds through corneal electrodes to the mice. A drop of 0.5% tetracaine (Sigma, Cat. #T-7508) solution is placed on the eye prior to current delivery. The electrodes are subsequently placed gently onto the eyes of the animal and the electrical shock is initiated by triggering through a foot-pedal activator. The animals are restrained by hand and gently released as the shock is delivered and the seizure commences. Animals are monitored for hind limb tonic extension as the end point for this test. Current delivery is recorded as a measure of overall seizure-induction potential. Electrical current delivery can vary from approximately 30-55 mA (mice) or 90-160 mA (rats) depending on impedance in the animal and quality of the current delivery (ie. correct placement of the electrodes on the cornea). […]
# [2] = Open field test (acute toxicity); conditions: Sprague-Dawley, in vivo, oral, rat, read-out: TD50, motor impairment
# Text: Before MES test, compound treated rats are visually observed for acute toxicity signs for approximately one minute in the open field test. Here, rats are gently placed into a plexiglass enclosure and are monitored for behavior consistent with toxicity including ataxia, trembling, hypoactivity (including failure to seek the walls), hypersensitivity, lack of exploratory behavior and lack of avoidance of the open area. […] Motor impairment, as judged by this test was not observed in the rat model and generated a TD50 value of greater than 5 mg/kg.
# [3] = target: KCNQ5 (Homo sapiens, UniProt Q9NR82); experiment: Two-electrode voltage-clamp in Xenopus laevis oocytes, KCNQ5; assay type: cell-based
# Description: Female Xenopus laevis extracted ovaries were purchased from eNASCO (LM00935MX, eNASCO Fort Atkinson, Wis.). […] Approximately 50 nl cRNA (about 50 ng) was injected for KCNQ1, KCNQ4, and KCNQ5 using a Nanoject microinjector (Drummond, Broomall, Pa., USA). For co-expression of KCNQ2 and KCNQ3 and of KCNQ1 and KCNE1, cRNA's were mixed in equal molar ratios before injection of approximately 50 nl. […] Oocytes were kept in Culture Barth solution at 19° C. which was changed daily and currents were recorded after 3 to 5 days.
# KCNQ channel currents expressed in Xenopus laevis oocytes were recorded using a two-electrode voltage-clamp. […] The oocytes were placed in custom built perfusion chambers connected to a continuous flow system and impaled with a current electrode and a voltage-clamp electrode pulled from borosilicate glass on a Flaming/Brown Micropipette Puller (Sutter Instruments Co, Novato, Calif., USA).
# All compounds were dissolved in DMSO to obtain concentrated stock solutions. On the day of electrophysiological experiments the stock solutions were thawed and diluted in recording solution to their final concentrations. The final DMSO concentration never exceeded 0.1%. Compound delivery was performed using a custom built multi-barrel apparatus connected to the flow system.
# Data were acquired by means of an Axograph X software (Axograph Scientific, Sydney, AU) and analyzed using Graph Pad Prism (GraphPad Software Inc., CA, USA). […]
# After steady channel current was recorded in the presence of Retigabine at its EC75, recorded oocyte was washed with the recording solution until its steady current returned to its normal level without the presence of any drugs. Then the channel steady current was recorded in the presence of the test compound at its EC75. The percent efficacy was then expressed as: % efficacy=(C2/C 1)×100 where C2 is the recorded steady current in the presence of follow-on compound at its EC75 and C1 is the recorded steady current in the presence of Retigabine at its EC75.
# [4] = target: hERG (Homo sapiens, UniProt Q12809); experiment: cell-based
# Sequence of hERG (Q12809 whole entry): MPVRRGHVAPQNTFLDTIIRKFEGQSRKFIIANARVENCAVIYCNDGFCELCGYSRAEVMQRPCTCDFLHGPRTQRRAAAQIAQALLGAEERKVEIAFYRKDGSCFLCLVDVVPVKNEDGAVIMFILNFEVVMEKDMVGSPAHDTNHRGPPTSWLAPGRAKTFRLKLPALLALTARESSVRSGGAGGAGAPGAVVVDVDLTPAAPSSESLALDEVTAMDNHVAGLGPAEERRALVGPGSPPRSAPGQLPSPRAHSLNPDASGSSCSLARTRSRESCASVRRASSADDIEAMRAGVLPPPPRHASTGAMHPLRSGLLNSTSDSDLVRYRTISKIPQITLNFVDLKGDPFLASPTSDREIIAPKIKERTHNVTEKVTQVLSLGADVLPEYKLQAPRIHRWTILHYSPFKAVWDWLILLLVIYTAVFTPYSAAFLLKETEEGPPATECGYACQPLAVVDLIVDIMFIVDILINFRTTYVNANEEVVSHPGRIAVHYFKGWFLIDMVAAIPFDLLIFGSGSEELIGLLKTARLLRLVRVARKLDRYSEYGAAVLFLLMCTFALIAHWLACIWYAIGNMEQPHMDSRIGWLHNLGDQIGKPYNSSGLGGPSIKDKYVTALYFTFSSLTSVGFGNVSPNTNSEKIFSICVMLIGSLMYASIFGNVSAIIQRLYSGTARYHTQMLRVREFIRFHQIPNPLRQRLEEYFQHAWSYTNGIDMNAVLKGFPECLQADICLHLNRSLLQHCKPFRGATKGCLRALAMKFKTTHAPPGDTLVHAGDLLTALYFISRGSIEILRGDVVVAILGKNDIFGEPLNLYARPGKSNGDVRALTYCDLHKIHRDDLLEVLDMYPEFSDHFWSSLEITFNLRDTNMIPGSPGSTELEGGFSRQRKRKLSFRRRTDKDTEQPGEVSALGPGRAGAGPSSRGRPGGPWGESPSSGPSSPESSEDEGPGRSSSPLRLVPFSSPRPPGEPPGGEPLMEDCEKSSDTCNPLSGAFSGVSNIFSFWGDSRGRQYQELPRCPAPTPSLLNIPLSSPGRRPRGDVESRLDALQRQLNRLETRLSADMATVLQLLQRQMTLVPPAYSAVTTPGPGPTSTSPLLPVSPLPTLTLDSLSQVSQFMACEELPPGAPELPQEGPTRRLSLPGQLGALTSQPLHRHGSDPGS
compound,measurement,setting,value
"Cc1cc(N2CCc3cc(F)ccc3C2)cc(C)c1NC(=O)CC(C)(C)C [compound A, N-[4-(6-fluoro-3,4-dihydro-1H-isoquinolin-2-yl)-2,6-dimethylphenyl]-3,3-dimethyl butanamide]",ED50,[1],2.2 mg/kg
same,TD50 at 1 min,[2],> 5 mg/kg
same,EC50,[3],350 nM
same,KCNQ5 Efficacy Relative to Retigabine (%),"[3]; oocyte expression, at EC75",100%
same,EC50,[4],> 30000 nM
